In patent US20230131899A1, “INHIBITORS OF MICROBIALLY INDUCED AMYLOID” (Axial Therapeutics, Inc., priority 2020, published 2023):
Read-outs that look alike come from different tables or passages of the source.

Target: T1, E. coli CsgA (Escherichia coli, UniProt P28307)
T1 construct: made in house; host or cells: E. coli NEB 3016 slyD::kan, pET11d
Experiment: In vitro ThioflavinT assay of CsgA aggregation (CsgA ThT Assay)
Assay type: biochemical
How it was run: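 Purified C-terminal His-tagged CsgA, monomerised by desalting and 30-kDa filtration, at 2-20 μM with 20-40 μM ThT in 50 mM potassium phosphate pH 7.3, 1% DMSO, compounds 3.125-200 uM; room temperature, fluorescence (ex 438/em 495 nm) read every 15 min. Background-subtracted signal expressed as percent inhibition versus vehicle at 6-6.5 or 8-9 h, or as percent control AUC.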

[1] = read-out: CsgA ThT Assay (2 μM CsgA) % Control Bmax 25 μM, activity range, class symbol, CsgA 2 μM, white plates, compound 25 μM
[2] = read-out: CsgA ThT Assay (2 μM CsgA) % Control Bmax 25 μM, mean Bmax as percentage of DMSO control, CsgA 2 μM, white plates, compound 25 μM
[3] = read-out: CsgA ThT Assay (2 μM CsgA) % Control Bmax 100 μM, activity range, class symbol, CsgA 2 μM, white plates, compound 100 μM
[4] = read-out: CsgA ThT Assay (2 μM CsgA) % Control Bmax 100 μM, mean Bmax as percentage of DMSO control, CsgA 2 μM, white plates, compound 100 μM
[5] = read-out: CsgA ThT Assay (10 μM CsgA) % Control AUC at 1005 minutes, 25 μM (activity range), CsgA 10 μM, black plates, compound 25 μM, 1005 minutes, class symbol
[6] = read-out: CsgA ThT Assay (10 μM CsgA) % Control AUC at 1005 minutes, 25 μM, mean AUC as % of DMSO control, CsgA 10 μM, black plates, compound 25 μM, 1005 minutes
[7] = read-out: CsgA ThT Assay (10 μM CsgA) % Control AUC at 1005 minutes, 100 μM (activity range), CsgA 10 μM, black plates, compound 100 μM, 1005 minutes, class symbol
[8] = read-out: CsgA ThT Assay (10 μM CsgA) % Control AUC at 1005 minutes, 100 μM, mean AUC as % of DMSO control, CsgA 10 μM, black plates, compound 100 μM, 1005 minutes

T1 sequence (P28307 23-151): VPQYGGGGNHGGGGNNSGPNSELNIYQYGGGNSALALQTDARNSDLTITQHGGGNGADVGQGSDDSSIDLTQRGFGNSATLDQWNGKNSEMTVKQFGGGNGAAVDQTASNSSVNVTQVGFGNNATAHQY

| Structure (SMILES) | remaining activity at 25 µM [1] | remaining activity at 25 µM [2] | remaining activity at 100 µM [3] | remaining activity at 100 µM [4] | remaining activity at 25 µM [5] | remaining activity at 25 µM [6] | remaining activity at 100 µM [7] | remaining activity at 100 µM [8] | further results |
| --- | --- | --- | --- | --- | --- | --- | --- | --- | --- |
| O=C(O)C1CN(CCCCCCN2CC(C(=O)O)n3c2c(-c2cccc(C(F)(F)F)c2)c(Cc2cccc4ccccc24)c(Cl)c3=O)c2c(-c3cccc(C(F)(F)F)c3)c(Cc3cccc4ccccc34)c(Cl)c(=O)n21 (stereo not shown) [Compound 193, 1,1′-(hexane-1,6-diyl)bis(6-chloro-7-(naphthalen-1-ylmethyl)-5-oxo-8-(3-(trifluoromethyl)phenyl)-1,2,3,5-tetrahydroimidazo[1,2-a]pyridine-3-carboxylic acid)] | 31 to 60% | 53% | < 10% | 10% | – | – | – | – | – |
| NC(=O)c1c(Cc2cccc3ccccc23)c(-c2cccc(C(F)(F)F)c2)c2n(c1=O)C(C(=O)O)CN(C1CCCC1)S2(=O)=O (stereo not shown) [Compound 176, 7-carbamoyl-2-cyclopentyl-8-(naphthalen-1-ylmethyl)-6-oxo-9-(3-(trifluoromethyl)phenyl)-3,4-dihydro-2H,6H-pyrido[1,2-e][1,2,5]thiadiazine-4-carboxylic acid 1,1-dioxide] | 11 to 31% | 25% | 11 to 31% | 24% | – | – | – | – | – |
| CN(C)C(=O)C1CN(C)S(=O)(=O)c2c(-c3cccc(C(F)(F)F)c3)c(Cc3cccc4ccccc34)cc(=O)n21 (stereo not shown) [Compound 032, N,N-2-trimethyl-8-(naphthalen-1-ylmethyl)-6-oxo-9-(3-(trifluoromethyl)phenyl)-3,4-dihydro-2H,6H-pyrido[1,2-e][1,2,5]thiadiazine-4-carboxamide 1,1-dioxide] | – | – | – | – | > 60% | 92% | – | – | – |
| O=C(O)C1CN(CCC2CCCCC2)c2c(-c3cccc(C(F)(F)F)c3)c(Cc3cccc4ccccc34)c(Cl)c(=O)n21 (stereo not shown) [Compound 207, 6-chloro-1-(2-cyclohexylethyl)-7-(naphthalen-1-ylmethyl)-5-oxo-8-(3-(trifluoromethyl)phenyl)-1,2,3,5-tetrahydroimidazo[1,2-a]pyridine-3-carboxylic acid] | 31 to 60% | 51% | 11 to 31% | 20% | – | – | – | – | – |
| CNC(=O)CCCCN1CC(C(=O)O)n2c(c(-c3cccc(C(F)(F)F)c3)c(Cc3cccc4ccccc34)cc2=O)S1(=O)=O (stereo not shown) [Compound 038, 2-(5-(methylamino)-5-oxopentyl)-8-(naphthalen-1-ylmethyl)-6-oxo-9-(3-(trifluoromethyl)phenyl)-3,4-dihydro-2H,6H-pyrido[1,2-e][1,2,5]thiadiazine-4-carboxylic acid 1,1-dioxide] | – | – | – | – | > 60% | 86% | 11 to 31% | 25% | – |
| O=C(O)C1CN(Cc2cccnc2)c2c(-c3cccc(C(F)(F)F)c3)c(Cc3cccc4ccccc34)c(Cl)c(=O)n21 (stereo not shown) [Compound 169, 6-chloro-7-(naphthalen-1-ylmethyl)-5-oxo-1-(pyridin-3-ylmethyl)-8-(3-(trifluoromethyl)phenyl)-1,2,3,5-tetrahydroimidazo[1,2-a]pyridine-3-carboxylic acid] | > 60% | 77% | > 60% | 64% | – | – | – | – | – |
| Cn1c(=O)c2c(nc(CCCCCCN3CC(C(=O)O)n4c(c(-c5cccc(C(F)(F)F)c5)c(Cc5cccc6ccccc56)cc4=O)S3(=O)=O)n2C)n(C)c1=O (stereo not shown) [Compound 046, 8-(naphthalen-1-ylmethyl)-6-oxo-9-(3-(trifluoromethyl)phenyl)-2-(6-(1,3,7-trimethyl-2,6-dioxo-2,3,6,7-tetrahydro-1H-purin-8-yl)hexyl)-3,4-dihydro-2H,6H-pyrido[1,2-e][1,2,5]thiadiazine-4-carboxylic acid 1,1-dioxide] | – | – | – | – | 31 to 60% | 55% | 31 to 60% | 55% | – |
| CCCN1CC(C(=O)O)n2c(c(-c3cccc(C(F)(F)F)c3)c(Cc3cccc4ccccc34)c(O)c2=O)S1(=O)=O (stereo not shown) [Compound 141, 7-hydroxy-8-(naphthalen-1-ylmethyl)-6-oxo-2-propyl-9-(3-(trifluoromethyl)phenyl)-3,4-dihydro-2H,6H-pyrido[1,2-e][1,2,5]thiadiazine-4-carboxylic acid 1,1-dioxide] | > 60% | 80% | > 60% | 94% | – | – | – | – | – |
| Cc1c(Cc2cccc3ccccc23)c(-c2cccc(C(F)(F)F)c2)c2n(c1=O)C(C(=O)O)CN(C)S2(=O)=O (stereo not shown) [Compound 068, 2,7-dimethyl-8-(naphthalen-1-ylmethyl)-6-oxo-9-(3-(trifluoromethyl)phenyl)-3,4-dihydro-2H,6H-pyrido[1,2-e][1,2,5]thiadiazine-4-carboxylic acid 1,1-dioxide] | – | – | – | – | 31 to 60% | 43% | 11 to 31% | 23% | – |
| Cn1c(=O)c2c(ncn2CCCCN2CC(C(=O)O)n3c(c(-c4cccc(C(F)(F)F)c4)c(Cc4cccc5ccccc45)cc3=O)S2(=O)=O)n(C)c1=O (stereo not shown) [Compound 033, 2-(4-(1,3-dimethyl-2,6-dioxo-1,2,3,6-tetrahydro-7H-purin-7-yl)butyl)-8-(naphthalen-1-ylmethyl)-6-oxo-9-(3-(trifluoromethyl)phenyl)-3,4-dihydro-2H,6H-pyrido[1,2-e][1,2,5]thiadiazine-4-carboxylic acid 1,1-dioxide] | – | – | – | – | > 60% | 68% | > 60% | 79% | – |
| O=C(O)C1CN(Cc2ccccc2)c2c(-c3cccc(C(F)(F)F)c3)c(Cc3cccc4ccccc34)c(Br)c(=O)n21 (stereo not shown) [Compound 003, 1-benzyl-6-bromo-7-(naphthalen-1-ylmethyl)-5-oxo-8-(3-(trifluoromethyl)phenyl)-1,2,3,5-tetrahydroimidazo[1,2-a]pyridine-3-carboxylic acid] | 31 to 60% | 54% | 11 to 31% | 16% | – | – | – | – | – |
| O=C(O)C1CSc2c(-c3cccc(C(F)(F)F)c3)c(C(F)(F)c3cccc4ccccc34)cc(=O)n21 (stereo not shown) [Compound 073, 7-(difluoro(naphthalen-1-yl)methyl)-5-oxo-8-(3-(trifluoromethyl)phenyl)-2,3-dihydro-5H-thiazolo[3,2-a]pyridine-3-carboxylic acid] | – | – | – | – | 11 to 31% | 27% | > 60% | 97% | – |
| Nc1c(Cc2cccc3ccccc23)c(-c2cccc(C(F)(F)F)c2)c2n(c1=O)C(C(=O)O)CS2 (single isomer, unassigned) [Compound 020b, 6-amino-7-(naphthalen-1-ylmethyl)-5-oxo-8-(3-(trifluoromethyl)phenyl)-2,3-dihydro-5H-thiazolo[3,2-a]pyridine-3-carboxylic acid] | – | – | – | – | – | – | – | – | CsgA ThT Assay (10 μM CsgA) % Control AUC at 1005 minutes, 25 μM (activity range) (CsgA 10 μM, black plates, compound 25 μM, 1005 minutes, class symbol): (+++) (% control AUC of 11 to 31%); CsgA ThT Assay (10 μM CsgA) % Control AUC at 1005 minutes, 100 μM (activity range) (CsgA 10 μM, black plates, compound 100 μM, 1005 minutes, class symbol): (+++) (% control AUC of 11 to 31%); CsgA ThT Assay (10 μM CsgA) % Control AUC at 1005 minutes, 25 μM (mean AUC as % of DMSO control, CsgA 10 μM, black plates, compound 25 μM, 1005 minutes): 26%; CsgA ThT Assay (10 μM CsgA) % Control AUC at 1005 minutes, 100 μM (mean AUC as % of DMSO control, CsgA 10 μM, black plates, compound 100 μM, 1005 minutes): 16% |
| CN1CC(C(=O)O)n2c(c(-c3cccc(C(F)(F)F)c3)c(Cc3cccc4ccccc34)c(C(=O)NC(C)(C)C)c2=O)S1(=O)=O (stereo not shown) [Compound 158, 7-(tert-butylcarbamoyl)-2-methyl-8-(naphthalen-1-ylmethyl)-6-oxo-9-(3-(trifluoromethyl)phenyl)-3,4-dihydro-2H,6H-pyrido[1,2-e][1,2,5]thiadiazine-4-carboxylic acid 1,1-dioxide] | > 60% | 69% | > 60% | 72% | – | – | – | – | – |
| CCCN1CC(C(=O)O)n2c(c(-c3cccc(C(F)(F)F)c3)c(Cc3cccc4ccccc34)c(OCC)c2=O)S1(=O)=O (stereo not shown) [Compound 143, 7-ethoxy-8-(naphthalen-1-ylmethyl)-6-oxo-2-propyl-9-(3-(trifluoromethyl)phenyl)-3,4-dihydro-2H,6H-pyrido[1,2-e][1,2,5]thiadiazine-4-carboxylic acid 1,1-dioxide] | > 60% | 87% | > 60% | 88% | – | – | – | – | – |
